Source: the NIST ThermoML archive (doi:10.1016/j.jct.2015.07.014)
“And” between values parts separate entries of the source, which are not always exact repeats. Equal values may be shown once. Numbers after ± are expanded uncertainties.

Conditions: Fluid (supercritical or subcritical phases), Buoyancy - hydrostatic balance with magnetic suspension - one sinker

[Ar] [argon]
Conditions | mass density [kg/m3]
298.2 K, 30957 kPa | 499.118 ± 0.25
298.22 K, 26965 kPa | 444.81 ± 0.22
298.22 K, 28963 kPa | 472.591 ± 0.24
298.23 K, 10975 kPa | 185.811 ± 0.11
298.23 K, 12977 kPa | 220.515 ± 0.12
298.23 K, 14975 kPa | 254.862 ± 0.14
298.23 K, 18968 kPa | 321.888 ± 0.17
298.23 K, 20970 kPa | 354.268 ± 0.18
298.23 K, 22969 kPa | 385.599 ± 0.2
298.23 K, 24967 kPa | 415.802 ± 0.21
298.24 K, 16973 kPa | 288.723 ± 0.15
348.19 K, 30960 kPa | 409.077 ± 0.2
348.21 K, 10976 kPa | 153.363 ± 0.077
348.21 K, 19007 kPa | 262.654 ± 0.14
348.21 K, 28963 kPa | 386.293 ± 0.19
348.22 K, 18971 kPa | 262.184 ± 0.14
348.22 K, 28964 kPa | 386.289 ± 0.19
348.23 K, 17005 kPa | 236 ± 0.42
348.24 K, 15014 kPa | 209.051 ± 0.29
348.24 K, 16969 kPa | 235.508 ± 0.42
348.24 K, 26966 kPa | 362.782 ± 1.3
348.24 K, 30961 kPa | 409.019 ± 0.2
348.25 K, 12974 kPa | 181.049 ± 0.34
348.25 K, 32887 kPa | 430.274 ± 0.21
348.26 K, 21009 kPa | 288.719 ± 0.17
348.26 K, 24967 kPa | 338.568 ± 0.87
348.27 K, 14970 kPa | 208.427 ± 0.29
348.27 K, 20969 kPa | 288.199 ± 0.17
348.27 K, 22970 kPa | 313.733 ± 0.19
348.27 K, 26989 kPa | 363.019 ± 1.3
348.28 K, 11019 kPa | 153.917 ± 0.078
348.28 K, 13012 kPa | 181.556 ± 0.34
348.28 K, 25000 kPa | 338.949 ± 0.87
348.29 K, 23010 kPa | 314.199 ± 0.19
397.91 K, 12975 kPa | 155.101 ± 0.085
397.98 K, 14981 kPa | 178.323 ± 0.096
398.1 K, 24969 kPa | 288.472 ± 0.14
398.17 K, 16979 kPa | 201.05 ± 0.11
398.19 K, 30985 kPa | 349.444 ± 0.17
398.2 K, 28999 kPa | 329.764 ± 0.17
398.21 K, 32960 kPa | 368.494 ± 0.18
398.23 K, 26971 kPa | 309.171 ± 0.17
398.23 K, 30962 kPa | 349.179 ± 0.17
398.24 K, 11017 kPa | 132.022 ± 0.076
398.24 K, 19010 kPa | 223.818 ± 0.11
398.25 K, 21010 kPa | 245.897 ± 0.12
398.26 K, 13011 kPa | 155.367 ± 0.085
398.26 K, 23005 kPa | 267.5 ± 0.13
398.28 K, 28964 kPa | 329.33 ± 0.16
398.3 K, 17005 kPa | 201.261 ± 0.11
398.31 K, 15013 kPa | 178.513 ± 0.097
398.35 K, 27004 kPa | 309.394 ± 0.15
398.47 K, 25004 kPa | 288.536 ± 0.14
398.61 K, 18975 kPa | 223.208 ± 0.12
398.87 K, 20975 kPa | 245.092 ± 0.13
398.92 K, 22970 kPa | 266.619 ± 0.14

N#N [nitrogen]
Conditions | mass density
298.12 K, 32109 kPa | 311.953 ± 0.15 kg/m3
298.22 K, 30959 kPa | 303.674 ± 0.15 kg/m3
298.23 K, 10976 kPa | 123.118 ± 0.07 kg/m3
298.23 K, 12976 kPa | 144.452 ± 0.079 kg/m3
298.23 K, 16971 kPa | 185.161 ± 0.096 kg/m3
298.23 K, 19010 kPa | 204.785 ± 0.1 kg/m3
298.23 K, 20970 kPa | 222.928 ± 0.11 kg/m3
298.23 K, 22971 kPa | 240.653 ± 0.12 kg/m3
298.23 K, 26968 kPa | 273.675 ± 0.14 kg/m3
298.23 K, 26969 kPa | 273.679 ± 0.14 kg/m3
298.23 K, 28965 kPa | 289.039 ± 0.14 kg/m3
298.23 K, 28966 kPa | 289.035 ± 0.14 kg/m3
298.24 K, 11019 kPa | 123.569 ± 0.07 kg/m3
298.24 K, 13017 kPa | 144.868 ± 0.079 kg/m3
298.24 K, 14976 kPa | 165.17 ± 0.088 kg/m3
298.24 K, 17014 kPa | 185.557 ± 0.096 kg/m3
298.24 K, 18975 kPa | 204.467 ± 0.1 kg/m3
298.24 K, 21004 kPa | 223.219 ± 0.11 kg/m3
298.24 K, 22992 kPa | 240.817 ± 0.12 kg/m3
298.24 K, 24970 kPa | 257.55 ± 0.13 kg/m3
298.24 K, 24971 kPa | 257.546 ± 0.13 kg/m3
298.25 K, 15014 kPa | 165.544 ± 0.088 kg/m3
298.33 K, 30945 kPa | 303.445 ± 0.15 kg/m3
348.21 K, 28966 kPa | 244.176 ± 0.12 kg/m3
348.23 K, 17010 kPa | 154.974 ± 0.11 kg/m3
348.23 K, 32959 kPa | 269.893 ± 0.13 kg/m3
348.24 K, 18974 kPa | 170.907 ± 0.093 kg/m3
348.24 K, 26968 kPa | 230.548 ± 0.12 kg/m3
348.24 K, 28967 kPa | 244.162 ± 0.12 kg/m3
348.25 K, 10981 kPa | 103.086 ± 0.18 kg/m3
348.25 K, 13016 kPa | 121.065 ± 0.07 kg/m3
348.25 K, 22970 kPa | 201.759 ± 0.32 kg/m3
348.25 K, 24970 kPa | 216.421 ± 0.13 kg/m3
348.25 K, 26979 kPa | 230.612 ± 0.12 kg/m3
348.25 K, 30963 kPa | 257.253 ± 0.13 kg/m3 and 257.258 ± 0.13 kg/m3
348.26 K, 15015 kPa | 138.272 ± 0.074 kg/m3
348.26 K, 16972 kPa | 154.648 ± 0.11 kg/m3
348.26 K, 20971 kPa | 186.577 ± 0.31 kg/m3
348.27 K, 11019 kPa | 103.42 ± 0.18 kg/m3
348.27 K, 21013 kPa | 186.886 ± 0.31 kg/m3
348.28 K, 12976 kPa | 120.712 ± 0.069 kg/m3
348.28 K, 14976 kPa | 137.928 ± 0.073 kg/m3
348.28 K, 19011 kPa | 171.174 ± 0.093 kg/m3
348.28 K, 23006 kPa | 202.007 ± 0.32 kg/m3
348.29 K, 25001 kPa | 216.612 ± 0.13 kg/m3
398.17 K, 21012 kPa | 161.802 ± 0.082 kg/m3
398.19 K, 23005 kPa | 175.071 ± 0.088 kg/m3
398.21 K, 27000 kPa | 200.503 ± 0.1 kg/m3
398.22 K, 19011 kPa | 148.062 ± 0.076 kg/m3
398.22 K, 28993 kPa | 212.616 ± 0.1 kg/m3
398.22 K, 32961 kPa | 235.672 ± 0.12 kg/m3
398.23 K, 25002 kPa | 187.957 ± 0.094 kg/m3
398.24 K, 20972 kPa | 161.499 ± 0.082 kg/m3
398.24 K, 26967 kPa | 200.287 ± 0.1 kg/m3
398.24 K, 28966 kPa | 212.445 ± 0.1 kg/m3
398.25 K, 12976 kPa | 104.354 ± 0.057 kg/m3
398.25 K, 22969 kPa | 174.806 ± 0.088 kg/m3
398.26 K, 24969 kPa | 187.737 ± 0.094 kg/m3
398.26 K, 30962 kPa | 224.219 ± 0.11 kg/m3
398.27 K, 30977 kPa | 224.298 ± 0.11 kg/m3
398.28 K, 14977 kPa | 119.222 ± 0.065 kg/m3
398.28 K, 18975 kPa | 147.786 ± 0.076 kg/m3
398.29 K, 16973 kPa | 133.67 ± 0.07 kg/m3
398.3 K, 13014 kPa | 104.623 ± 0.057 kg/m3
398.32 K, 11005 kPa | 89.328 ± 0.051 kg/m3
398.36 K, 17012 kPa | 133.928 ± 0.07 kg/m3
398.39 K, 15006 kPa | 119.391 ± 0.065 kg/m3
